The numbers were not newly measured in US9937198B2, “Multi-functional composition and preparation method and application thereof” (Suzhou Sciscape Bio-Pharmaceutical Technology Co., Ltd., priority 2013, dated 2018), which cites them from elsewhere.

Series [1] deals with bees and other beneficial insects. The conditions noted are these: in vivo; cited from earlier work.
The subject of series [2] is rats. The settings on record: cited from earlier work.
For series [3] the following is noted: pure validamycin A; cited from earlier work.

SMILES strings stand for the structures.

In the case of `OCC1=C[C@@H](N[C@H]2C[C@H](CO)[C@@H](O[C@H]3O[C@@H](CO)[C@H](O)[C@@H](O)[C@@H]3O)[C@H](O)[C@H]2O)[C@H](O)[C@@H](O)[C@@H]1O` [Validamycin A, validamycin A], the “toxicity to bees and other beneficial insects” value in series [1] is on record as “no toxicity”. Besides, the “acute oral toxicity (LD50) in rats” value in series [2] is reported as “above 20 g/kg”. In series [3], the solubility in water result is reported as “soluble in water”.
